US10058530B2, “Combination therapies for the treatment of Alzheimer's disease and related disorders” (The General Hospital Corporation, priority 2012, dated 2018)
Entries after “also recorded” stand apart in the source; their conditions may differ. Where two headings read alike, the source gives them in different places.

How the values were obtained:
[1] = in vivo; cited from earlier work
[2] = test system: AD patients; settings: some AD patients; Wettstein and Spiegel, 1985; cited from earlier work
[3] = test system: cholinergic neurons; settings: aged rhesus monkeys; cited from earlier work
[4] = test system: basal forebrain cholinergic neurons; settings: rats; cited from earlier work
[5] = test system: Aβ fibril formation; settings: cited from earlier work
[6] = test system: Alzheimer's disease patients; settings: Phase 2a; cited from earlier work
[7] = test system: Aβ peptide; experiment: Aβ aggregation by thioflavin T assay; type: biochemical; settings: for inhibition of Aβ amyloid peptide polymerization into oligomers and higher order aggregates: summary of four separate in vitro assays, nanomolar concentrations; for inhibition of Aβ aggregation, thioflavin fluorescence: nanomolar concentration
Method: One of the most routinely used approaches to monitor Aβ polymerization is the thioflavin T binding assay. […] Aβ peptide at 5 μM was mixed with 10 μM thioflavin T with drug at different concentrations.
(§1) One of the most routinely used approaches to monitor Aβ polymerization is the thioflavin T binding assay (Elmaleh, 2014; Hori, 2015). […] Aβ peptide at 5 μM was mixed with 10 μM thioflavin T with drug at different concentrations.
Fibrillization of synthetic Aβ40 (FIG. 12A, left column and FIG. 12B, left column) or Aβ42 (FIG. 12A, right column and FIG. 12B, right column) peptides was followed over 1 hour.

[8] = human lung, high inspiratory rates, dry powder inhaler; cited from earlier work
[9] = biological target: T1, Aβ40 (Homo sapiens, UniProt P05067); experiment: TBS soluble Aβ40 level in brain of APP/PS1 mice by WAKO ELISA; type: in vivo; parameters: from tissue; host or cells: brain TBS-soluble extract of APP/PS1 transgenic mice; settings: two higher doses (2.1 mg/kg and 3.15 mg/kg), IP daily 7 days
T1 sequence (P05067 672-711 limits assumed): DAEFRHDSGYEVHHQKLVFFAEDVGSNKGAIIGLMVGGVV
Description: (§2) The treatment was given by IP injection everyday for 7 days before sacrificing the mice and harvesting the brain. Brain extracts were quantified for the total amount of Aβ40, Aβ42 and Aβ oligomers.
(§3) FIG. 5 illustrates the measurement of TBS soluble Aβ level by WAKO ELISA. […] As indicated, the number of animals per group is N=3 or 5, average±SE. The p value is significant using one-way ANOVA test (Bonferroni's test).

[10] = test system: TBS soluble Aβ; experiment: TBS soluble Aβ level in brain of APP/PS1 mice by WAKO ELISA; type: in vivo
Description: as §2, §3

[11] = biological target: T2, Aβ42 (Homo sapiens, UniProt P05067); experiment: Thioflavin T fibrillization assay, synthetic Aβ42; type: biochemical; parameters: host or cells: synthetic peptide; settings: 5 nM, 50 nM and 500 nM; followed over 1 hour; smaller effects than on Aβ40
T2 sequence (P05067 672-713 limits assumed): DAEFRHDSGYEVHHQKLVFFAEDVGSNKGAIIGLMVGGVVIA
Method: as §1
(§4) Fibrillization of synthetic Aβ40 (FIG. 12A, left column and FIG. 12B, left column) or Aβ42 (FIG. 12A, right column and FIG. 12B, right column) peptides was followed over 1 hour. The corresponding Vmax index (milli-units/minute) is indicated on each graph.

[12] = biological target: T1, Aβ40; experiment: Thioflavin T fibrillization assay, synthetic Aβ40; type: biochemical; parameters: host or cells: synthetic peptide; settings: 5 nM, 50 nM and 500 nM; followed over 1 hour
Method: as §1, §4

[13] = clinical; settings: human, in vivo; for MRT: mean residence time in plasma
[14] = test system: Aβ oligomer; experiment: TBS soluble Aβ oligomer level in brain of APP/PS1 mice (IBL 82E1-82E1 oligomer ELISA); type: in vivo; settings: IP daily 7 days
Description: as §2
FIG. 6 illustrates the measurement of TBS soluble Aβ oligomer level IBL oligomer ELISA (82E1-82E1). […] FIGS. 6B and 6C show the difference the experiments with Gdn and those without Gdn using Aβ WAKO ELISA. N=3 or 5 animals per group, average±SE. The p value is not significant using one-way ANOVA test (Bonferroni's test).

[15] = human
[16] = test system: microglia (Iba1) around amyloid deposits; experiment: Immunostaining of Aβ and microglial marker Iba1 in brain sections of APP/PS1 mice; type: in vivo; settings: 3.15 mg/kg daily for seven days, vs PBS
[17] = J. Pharm. Sci. 92(6), 2003; cited from earlier work
[18] = inhalation studies, Beach et al. 1981; cited from earlier work
[19] = biological target: T2, Aβ42; experiment: TBS soluble Aβ42 level in brain of APP/PS1 mice by WAKO ELISA; type: in vivo; parameters: from tissue; host or cells: brain TBS-soluble extract of APP/PS1 transgenic mice; settings: two higher doses (2.1 mg/kg and 3.15 mg/kg), IP daily 7 days
Description: as §2, §3

[20] = test system: microglial cells; experiment: Aβ uptake by cultured microglial cells; type: cell-based; settings: 0, 10 nM, 10 μM or 1 mM, 16 hours
Method: After the incubation, the concentrations of […]-42 (right panel) in media were measured using Aβ ELISA and normalized with microglia cell number and according to the PBS control condition. (n=3 experiments; *, P<0.05, **, P<0.01)

[21] = biological target: Abeta (1-40) peptides (Homo sapiens, UniProt P05067); experiment: UV aggregation assay; type: biochemical
Chain of Abeta (1-40) peptides (P05067 672-711 limits assumed): as the sequence (P05067 672-711 limits assumed) above
Method: Abeta peptide aggregation and the impact of drugs to slow or prevent Abeta aggregation was measured by a UV absorbance assay (Findeis, 1999). Abeta (1-40) peptides, at 50 μM, were mixed with 50 μM drug in assay buffer and the plate was incubated at ambient temperature on a plate reader. The UV absorbance was monitored at 540 nm over a 2-3 h period.
Polymerization of Aβ-monomer peptides into clusters of trimers and tetramers initiates the Aβ aggregation process into protofibrils and then into fibrils that form amyloid plaques.

[22] = Brain concentration of PIB analog TS3124; settings: in vivo

## CCN1C(=O)CC2(CCN(C)CC2)C1=O [RS-86, 2-ethyl-8-methyl-2,8-diazospiro-4,5-decan-1,3-dione]
[1]
  brain penetration: low
[2]
  cognitive function, mood and social behavior: improves cognitive function, mood and social behavior

## NGF: nerve growth factor; CERE-110 is NGF gene therapy
[3]
  cholinergic axonal density: restores cholinergic axonal density in aged monkeys to levels observed in young monkeys
  cholinergic neuron atrophy: ameliorates cholinergic neuron atrophy
[4]
  age-related behavioral decline: reversed age-related behavioral decline
  cholinergic neuron cell death: prevented cholinergic neuron cell death

## O=c1c(O)c(-c2ccc(O)c(O)c2)oc2cc(O)cc(O)c12 [Quercetin]
[5]
  Effects on Aβ fibril formation: Inhibitory

## O=c1c(O)c(-c2cc(O)c(O)c(O)c2)oc2cc(O)cc(O)c12 [Myricetin]
[5]
  Effects on Aβ fibril formation: Inhibitory

## Fisetin
[5]
  Effects on Aβ fibril formation: Inhibitory

## O=c1c(O)c(-c2ccc(O)cc2)oc2cc(O)ccc12 [3,4′,7-Trihydroxyflavone, 3,4′,7-Tri-hydroxyflavone]
[5]
  Effects on Aβ fibril formation: Inhibitory

## O=c1c(O)c(-c2ccc(O)c(O)c2)oc2ccccc12 [3,3′,4′-Trihydroxyflavone, 3,3′,4′-Tri-hydroxyflavone]
[5]
  Effects on Aβ fibril formation: Inhibitory

## O=c1c(O)c(-c2ccc(O)cc2)oc2cc(O)ccc12 [5-Deoxykaempferol, 5-Deoxy-kaempferol]
[5]
  Effects on Aβ fibril formation: Enhancing

## O=c1cc(-c2ccc(O)c(O)c2)oc2cc(O)cc(O)c12 [Luteolin]
[5]
  Effects on Aβ fibril formation: Inhibitory

## O=c1c(O)c(-c2cccc(O)c2)oc2cc(O)ccc12 [3,3′,7-Trihydroxyflavone, 3,3′,7-Tri-hydroxyflavone]
[5]
  Effects on Aβ fibril formation: Enhancing

## O=C(NC1CN2CCC1CC2)c1n[nH]c2ccccc12 (stereo not drawn) [R3487]
[6]
  effect on multiple measures of cognition: statistically significant effect

## O=C([O-])c1cc(=O)c2c(OCC(F)COc3cccc4oc(C(=O)[O-])cc(=O)c34)cccc2o1.[Na+].[Na+] [TS734]
[7]
  inhibition of Aβ amyloid peptide polymerization into oligomers and higher order aggregates: effectively inhibits

## O=C([O-])c1cc(=O)c2c(OCC(O)COc3cccc4oc(C(=O)[O-])cc(=O)c34)cccc2o1.[Na+].[Na+] [cromolyn sodium]
[8]
  inhaled drug-delivered-dose absorbed into the bloodstream: 10-15%
[9]
  decrease in the amount of Aβ40: up to 50%
[10]; APP/PS1 mice, IP daily 7 days, no guanidine
  monomeric Aβ (Gdn−): decease; also recorded: reduction
[10]; after 1 week of peripheral administration
  decrease of total soluble Aβ levels: over 50%
[11]
  Aβ42 fibrillization, Thioflavin T fluorescence: significantly decreased
[7]
  concentration at which Aβ peptide polymerization is inhibited: 5 nM
  inhibition of Aβ aggregation, thioflavin fluorescence: inhibition of Aβ aggregation; also recorded: inhibiting effect
  inhibition of Aβ amyloid peptide polymerization into oligomers and higher order aggregates: inhibits its polymerization into oligomers and higher order aggregates; also recorded: effectively inhibits
[7]; listed as CO399
  inhibition of Aβ aggregation, thioflavin fluorescence: inhibition of Aβ aggregation
[7]; listed as cromolyn
  inhibition of Aβ amyloid peptide polymerization into oligomers and higher order aggregates: effectively inhibits
[12]
  Aβ40 fibrillization, Thioflavin T fluorescence: significantly decreased
[13]; inhaled or intranasal, 17.1 mg, 17.1 mg inhaled
  MRT: 3.3 ± 2.9 h
[13]; inhaled or intranasal, 17.1 mg, range, 17.1 mg inhaled
  MRT: 0.79 to 12.1 h
[13]; inhaled or intranasal, 34.2 mg, 34.2 mg inhaled (double dose)
  MRT: 2.8 ± 1 h
[13]; inhaled or intranasal, 34.2 mg, range, 34.2 mg inhaled (double dose)
  MRT: 1 to 5.4 h
[13]; inhaled or intranasal, half-life of clearance from plasma, inhaled
  half-life: 1.75 ± 0.9 h
[13]; inhaled or intranasal, half-life of clearance from plasma, range, inhaled
  half-life: 0.5 to 3.7 h
[13]; plasma half-life corresponding to mean residence time, 17.1 mg inhaled
  half-life: ~2.3 h
[14]
  Aβ oligomer level as difference with and without Gdn, WAKO ELISA: not changed
[15]; 17.1 mg inhaled
  AUC (plasma): 147.5±67.1 ng/mlxh
  AUC (plasma), range: 44.7-287.0 ng/mlxh
  maximum plasma concentration: 47.1 ± 33.6 ng/mL
  maximum plasma concentration, range: 14.0 to 133 ng/mL
  time of maximum plasma concentration: 23.3 ± 16.9 min
  time of maximum plasma concentration, range: 5 to 60 min
[15]; 34.2 mg inhaled (double dose)
  AUC (plasma): 254.4±93.8 ng/mlxh
  AUC (plasma), range: 122.1-443.3 ng/mlxh
  maximum plasma concentration: 95.0 ± 45.5 ng/mL
  maximum plasma concentration, range: 36.1 to 236 ng/mL
  time of maximum plasma concentration: 22.2 ± 19.4 min
  time of maximum plasma concentration, range: 5 to 60 min
[15]; inhaled, expected
  plasma concentration at 12 hours following inhalation: negligible
[16]
  percentage of Iba1 immunoreactivity overlapping with amyloid: higher percentage of Iba1 immunoreactivity overlapping with amyloid
[16]; listed as Cromolyn Sodium
  percentage of Iba1 immunoreactivity overlapping with amyloid: increased overlap between Aβ and Iba1
[17]
  % PSA: 44
  LogP: 1.9
  PSA: 189
[18]
  pulmonary and cardiovascular (CV) function assessments: no treatment effect
[19]
  decrease in the amount of Aβ42: up to 50%
[20]; 50 nM synthetic Aβ40
  Aβ40 levels in media of microglia culture: dose-dependent decrease
[20]; 50 nM synthetic Aβ42
  Aβ42 levels in media of microglia culture: dose-dependent decrease
[21]
  inhibition of Aβ peptide polymerization: 8 fold
[21]; equimolar with Aβ (50 μM)
  inhibition of the rate of Aβ polymerization: 7 fold
[21]; equimolar with Aβ (50 μM), 14 minutes in absence of drug
  time to 50% polymerization: 75 min

## O=c1cc(-c2ccccc2)oc2cc(O)cc(O)c12 [Chrysin]
[5]
  Effects on Aβ fibril formation: Enhancing

## CC(F)CNc1ccc(-c2nc3ccc(O)cc3s2)cc1 (stereo not drawn) [TS3124]
[22]
  brain concentration: 4%

## O=c1c(O)c(-c2ccc(O)cc2)oc2cc(O)cc(O)c12 [Kaempferol]
[5]
  Effects on Aβ fibril formation: Enhancing
